Paper PMC2978510 (Bioorganic & medicinal chemistry, 2010)

Assays:
[1] = mouse; ref [28]; cited from earlier work
CB2 receptor [2] = conditions: cited from earlier work; for Ki: read-out: Affinity for the CB2 receptor, Merck Frosst group, ref [29]
CB1 receptor [3] = conditions: Merck Frosst group; ref [29]; cited from earlier work
CB2 receptor [4] = molecular target: T1, CB2 receptor (Homo sapiens, UniProt P34972); conditions: ref [31], cited from earlier work
CB1 receptor [5] = molecular target: CB1 receptor (Rattus norvegicus, UniProt P20272); conditions: read-out: Ki (nM) CB1; mean ± SEM; ref [31]; cited from earlier work
Chain of CB1 receptor (Rattus norvegicus, UniProt P20272) (P20272 whole entry): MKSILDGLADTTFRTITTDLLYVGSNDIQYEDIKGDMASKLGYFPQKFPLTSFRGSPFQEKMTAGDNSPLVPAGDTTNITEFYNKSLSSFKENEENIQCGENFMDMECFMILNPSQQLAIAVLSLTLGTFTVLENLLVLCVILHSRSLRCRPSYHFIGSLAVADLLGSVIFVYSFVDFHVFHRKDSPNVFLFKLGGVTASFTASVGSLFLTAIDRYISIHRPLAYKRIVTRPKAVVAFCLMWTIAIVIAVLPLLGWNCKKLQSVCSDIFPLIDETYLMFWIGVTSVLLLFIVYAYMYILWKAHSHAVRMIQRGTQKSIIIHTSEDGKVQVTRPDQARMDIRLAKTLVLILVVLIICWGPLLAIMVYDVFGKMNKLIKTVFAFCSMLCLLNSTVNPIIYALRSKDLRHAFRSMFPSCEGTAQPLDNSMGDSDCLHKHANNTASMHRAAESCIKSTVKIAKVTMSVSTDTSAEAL

CB2 receptor [6] = molecular target: T1, CB2 receptor; assay: GTPγS binding in CHO cells stably expressing the human CB2 receptor; format: biochemical; conditions: for Efficacy at the CB2 receptor: GTPγS binding, relative to CP-55,940

T1 sequence (P34972 whole entry): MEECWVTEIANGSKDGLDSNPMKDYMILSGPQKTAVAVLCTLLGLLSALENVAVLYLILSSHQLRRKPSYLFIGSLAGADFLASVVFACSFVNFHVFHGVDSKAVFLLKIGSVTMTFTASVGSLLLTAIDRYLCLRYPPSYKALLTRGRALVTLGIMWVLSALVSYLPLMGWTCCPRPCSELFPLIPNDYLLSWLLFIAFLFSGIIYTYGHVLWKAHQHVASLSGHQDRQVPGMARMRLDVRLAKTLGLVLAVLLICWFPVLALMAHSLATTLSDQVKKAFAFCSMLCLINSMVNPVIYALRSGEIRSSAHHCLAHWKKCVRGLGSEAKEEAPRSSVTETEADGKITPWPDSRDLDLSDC

CCCCCCC(C)(C)c1ccc2c(c1)OC(C)(C)[C@@H]1CC=C(CO)C[C@@H]21 [Compound 2, 11-hydroxy-3-(1′,1′-dimethylheptyl)-1-deoxy-Δ^8-THC]
Potency in vivo [1]: potent cannabinoid in vivo in the mouse

CCCCCCC(C)(C)c1ccc2c(c1)OC(C)(C)[C@@H]1CC=C(C)C[C@@H]21 [Compound 3, 3-(1′,1′-dimethylheptyl)-1-deoxy-Δ^8-THC]
Selectivity for the CB2 receptor (CB2 receptor [2]; ref [28]): nearly ten-fold selectivity | Potency in vivo [1]: potent in vivo

CCCCCCC(C)(C)c1cc(OC)c2c(c1)OC(C)(C)C1CC=C(C)CC21 (stereo not shown) [Compound 4, 1-methoxy-Δ^8-THC-DMH]
Ki (CB2 receptor [2]): ~0.02 µM | Affinity for the CB1 receptor (CB1 receptor [3]): negligible affinity

C=C1CCC2C(C1)c1c(OC)cc(C(C)(C)CCCCCC)cc1OC2(C)C (stereo not shown) [Compound 5, 1-methoxy-Δ^9(11)-THC-DMH]
Ki (CB2 receptor [2]): ~0.02 µM | Affinity for the CB1 receptor (CB1 receptor [3]): negligible affinity

CCCCCCC(C)(C)c1cc(OC)c2c(c1)OC(C)(C)C1CC=C(C)CC21 (stereo not shown) [JWH-143]
Selectivity for the CB2 receptor (CB2 receptor [4]; 1-methoxy series): 12 fold

CCCC(C)(C)c1cc(OC)c2c(c1)OC(C)(C)[C@@H]1CC=C(C)C[C@@H]21 [JWH-214]
Ki (CB1 receptor [5]): > 10000 nM | Ki (CB2 receptor [4]; read-out: Ki (nM) CB2, mean ± SEM): 325 ± 70 nM

CCCCCCC(C)(C)c1cc(Br)c2c(c1)OC(C)(C)[C@@H]1CC=C(C)C[C@@H]21 [JWH-383, 1-Bromo-1-deoxy-3-(1′,1′-dimethylheptyl)-Δ^8-tetrahydrocannabinol]
Efficacy at the CB2 receptor (CB2 receptor [6]): full agonists

CCCCCC(C)(C)c1cc(Br)c2c(c1)OC(C)(C)[C@@H]1CC=C(C)C[C@@H]21 [JWH-393, 1-Bromo-1-deoxy-3-(1′,1′-dimethylhexyl)-Δ^8-tetrahydrocannabinol]
Efficacy at the CB2 receptor (CB2 receptor [6]): full agonists | Emax (CB2 receptor [6]; read-out: Emax (% CP-55940), percent relative to 3 μM CP-55,940, mean ± SEM): 98.3 ± 6.8%
